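The compound was tested at five concentrations on cells cultured in 96-well plates, with a 48-hour exposure period. TGI is the concentration that stops growth completely.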
Columns and labels:
Experiment in all cases: NCI tumour cell line growth inhibition, 48 h
[1] = system: 786-0 renal
[2] = system: A498 renal
[3] = system: A549 NSCLC
[4] = system: ACHN renal
[5] = system: BT-549 breast
[6] = system: CAKI-1 renal
[7] = system: CCRF-CEM leukemia
[8] = system: COLO 205 colon
[9] = system: DU-145 prostate
[10] = system: EKVX NSCLC
[11] = system: HCC-2998 colon
[12] = system: HCT-116 colon
[13] = system: HCT-15 colon
[14] = system: HL-60(TB) leukemia
[15] = system: HOP-62 NSCLC
[16] = system: HOP-92 NSCLC
[17] = system: HS 578T breast
[18] = system: HT29 colon
[19] = system: IGROV1 ovarian
[20] = system: K-562 leukemia
[21] = system: KM12 colon
[22] = system: LOX IMVI melanoma
[23] = system: M14 melanoma
[24] = system: MALME-3M melanoma
[25] = system: MCF7 breast
[26] = system: MDA-MB-231 breast
[27] = system: MDA-MB-435
[28] = system: MDA-N
[29] = system: MOLT-4 leukemia
[30] = system: NCI-H226 lung
[31] = system: NCI-H23 lung
[32] = system: NCI-H460 lung
[33] = system: NCI-H522 lung
[34] = system: NCI/ADR-RES ovarian
[35] = system: OVCAR-3 ovarian
[36] = system: OVCAR-4 ovarian
[37] = system: OVCAR-5 ovarian
[38] = system: OVCAR-8 ovarian
[39] = system: PC-3 prostate
[40] = system: RPMI-8226 leukemia
[41] = system: RXF 393 renal
[42] = system: SF-268 CNS
[43] = system: SF-295 CNS
[44] = system: SF-539 CNS
[45] = system: SK-MEL-2 melanoma
[46] = system: SK-MEL-28 melanoma
[47] = system: SK-MEL-5 melanoma
[48] = system: SK-OV-3 ovarian
[49] = system: SN12C renal
[50] = system: SNB-19 CNS
[51] = system: SNB-75 CNS
[52] = system: SR leukemia
[53] = system: SW-620 colon
[54] = system: T-47D breast
[55] = system: TK-10 renal
[56] = system: U251 CNS
[57] = system: UACC-257 melanoma
[58] = system: UACC-62 melanoma
[59] = system: UO-31 renal

## CN(CCCN1CCCC1)CCCN(C)C(=O)Cc1ccc(Cl)c(Cl)c1
[1]
  TGI: 29.2 µM
[2]
  TGI: 28.1 µM
[3]
  TGI: > 53.6 µM
[4]
  TGI: > 68.3 µM
[5]
  TGI: 46.2 µM
[6]
  TGI: 49.1 µM
[7]
  TGI: 23.8 µM
[8]
  TGI: 41.2 µM
[9]
  TGI: > 100 µM
[10]
  TGI: 62.5 µM
[11]
  TGI: 20.6 µM
[12]
  TGI: 39.3 µM
[13]
  TGI: > 87 µM
[14]
  TGI: 37.1 µM
[15]
  TGI: 51 µM
[16]
  TGI: 35.9 µM
[17]
  TGI: 36 µM
[18]
  TGI: 17.5 µM
[19]
  TGI: 67.8 µM
[20]
  TGI: 18.3 µM
[21]
  TGI: 60.5 µM
[22]
  TGI: 27.9 µM
[23]
  TGI: 13.9 µM
[24]
  TGI: 34.6 µM
[25]
  TGI: 31.6 µM
[26]
  TGI: 31.9 µM
[27]
  TGI: 11.7 µM
[28]
  TGI: 16 µM
[29]
  TGI: 32.4 µM
[30]
  TGI: 48 µM
[31]
  TGI: 54.8 µM
[32]
  TGI: 33.8 µM
[33]
  TGI: 32.4 µM
[34]
  TGI: > 100 µM
[35]
  TGI: > 88.4 µM
[36]
  TGI: > 96.1 µM
[37]
  TGI: 78.1 µM
[38]
  TGI: > 100 µM
[39]
  TGI: > 74.4 µM
[40]
  TGI: 22.4 µM
[41]
  TGI: 31.9 µM
[42]
  TGI: > 51.5 µM
[43]
  TGI: 36.2 µM
[44]
  TGI: > 53.2 µM
[45]
  TGI: 28.2 µM
[46]
  TGI: 5.26 µM
[47]
  TGI: 36.3 µM
[48]
  TGI: > 89.6 µM
[49]
  TGI: 70.2 µM
[50]
  TGI: > 72.6 µM
[51]
  TGI: 42.6 µM
[52]
  TGI: 28.2 µM
[53]
  TGI: 50.7 µM
[54]
  TGI: 45.9 µM
[55]
  TGI: 32.1 µM
[56]
  TGI: 29.7 µM
[57]
  TGI: 7.45 µM
[58]
  TGI: 5.04 µM
[59]
  TGI: 9.64 µM

## CCOC(=O)/C=C(/C(=O)OCC)n1cc(C)c(=O)[nH]c1=O
[1]
  TGI: 8.28 µM
[2]
  TGI: 26.4 µM
[3]
  TGI: 31.5 µM
[4]
  TGI: 7.51 µM
[5]
  TGI: 22.8 µM
[6]
  TGI: 2.57 µM
[7]
  TGI: 4.61 µM
[8]
  TGI: 4.07 µM
[9]
  TGI: 29.7 µM
[10]
  TGI: 15.6 µM
[11]
  TGI: 17.5 µM
[12]
  TGI: 5.74 µM
[13]
  TGI: 4.92 µM
[14]
  TGI: 3.91 µM
[15]
  TGI: 33.2 µM
[16]
  TGI: 3.72 µM
[17]
  TGI: 46.9 µM
[18]
  TGI: 15.1 µM
[19]
  TGI: 12.9 µM
[20]
  TGI: 4.73 µM
[21]
  TGI: 29 µM
[22]
  TGI: 5.94 µM
[23]
  TGI: 3.91 µM
[24]
  TGI: 4.48 µM
[25]
  TGI: 12.7 µM
[26]
  TGI: 18.4 µM
[27]
  TGI: 10.2 µM
[28]
  TGI: 17.7 µM
[29]
  TGI: 6.51 µM
[30]
  TGI: 10.7 µM
[31]
  TGI: 18.3 µM
[32]
  TGI: 29.4 µM
[33]
  TGI: 2.14 µM
[34]
  TGI: 33.7 µM
[35]
  TGI: 6.71 µM
[36]
  TGI: > 32.2 µM
[37]
  TGI: 13.3 µM
[38]
  TGI: 9.81 µM
[39]
  TGI: 20.6 µM
[40]
  TGI: 5.68 µM
[41]
  TGI: 4.52 µM
[42]
  TGI: 24.6 µM
[43]
  TGI: 31.6 µM
[44]
  TGI: 27.3 µM
[45]
  TGI: 18.4 µM
[46]
  TGI: 15.5 µM
[47]
  TGI: 21.1 µM
[48]
  TGI: 32.4 µM
[49]
  TGI: 12.3 µM
[50]
  TGI: 32.2 µM
[51]
  TGI: 23.7 µM
[52]
  TGI: 5.24 µM
[53]
  TGI: 4.84 µM
[54]
  TGI: 17.5 µM
[55]
  TGI: 5.48 µM
[56]
  TGI: 18.8 µM
[57]
  TGI: 26 µM
[58]
  TGI: 15.8 µM
[59]
  TGI: 23.5 µM

From PubChem BioAssay (NCI)
